Where “and” joins values, the source holds several entries; their conditions need not be identical. Equal entries are not always repeated. One block for each compound: values may come before it.
How the values were obtained:
[1] = target: DPB1*0401 (Homo sapiens, UniProt P04440+P20036); assay: biochemical
[2] = target: DRB3*0202 (Homo sapiens, UniProt P01903+P79483, A212P/D57E/F66Y/L67A/R103Q/R218S/R40L/S89Y/T80R/V86D/Y55F/Y59H); assay: biochemical
[3] = target: DRB3*0101 (Homo sapiens, UniProt P01903+P79483); assay: biochemical
[4] = target: DPA1*0103/DPB1*0201 (Homo sapiens, UniProt P04440+P20036, A65V/A84D/A85E/K98E); assay: biochemical
[5] = target: DRB4*0101 (Homo sapiens, UniProt P01903+P13762, G164S); assay: biochemical
[6] = target: DPA1*0201/DPB1*0101 (Homo sapiens, UniProt P04440+P20036, F191V/F38Y/F64Y/G113D/G114E/K142R/L158P/L37V/M105V/M116V/M62Q/P115A/Q81R/R125K/R223Q/T114A/T199I/T259P); assay: biochemical
DPA1*0201/DPB1*0101, sequence (P20036 29-260 M62Q/Q81R/T114A/K142R/L158P/F191V, other chains not shown): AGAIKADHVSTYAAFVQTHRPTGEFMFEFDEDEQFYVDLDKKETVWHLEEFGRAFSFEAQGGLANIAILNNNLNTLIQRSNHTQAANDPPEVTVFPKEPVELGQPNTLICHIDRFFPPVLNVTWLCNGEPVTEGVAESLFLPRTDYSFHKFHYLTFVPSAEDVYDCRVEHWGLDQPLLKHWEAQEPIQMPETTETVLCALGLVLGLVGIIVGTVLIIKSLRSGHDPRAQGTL

[7] = target: DPA1*0201/DPB1*0501 (Homo sapiens, UniProt P04440+P20036, A65V/A84E/F191V/F64L/G113D/G114E/K142R/L158P/M116V/M62Q/P115A/Q81R/R125K/T114A/T199I/T259P/V234M); assay: biochemical
DPA1*0201/DPB1*0501, sequence (P20036 29-260 M62Q/Q81R/T114A/K142R/L158P/F191V/T259P, other chains not shown): as the sequence (P20036 29-260 M62Q/Q81R/T114A/K142R/L158P/F191V, other chains not shown) above, with T231P counted along it

[8] = system: PBMC from allergic donors; assay: Dual ELISPOT, total IL-5 and IFN-γ response (SFC); assay type: cell-based, human; details: for Response (SFC/10^6) Total: sum of IFNg and IL-5
Experimental: (§1) Spots were counted by computer-assisted image analysis (Zeiss, KS-ELISPOT reader, Munich, Germany).
(§2) Each assay was performed in triplicate. The level of statistical significance was determined with a Student's t-test using the mean of triplicate values of the response against relevant pools or individual peptides versus the response against the DMSO control.

[9] = system: PBMC from allergic donors; assay: IL-5 ELISPOT with extract-stimulated short-term lines; assay type: cell-based, human; details: positive donor/peptide response
Experimental: as §1, §2

[10] = system: PBMC from allergic donors; assay: IFN-γ ELISPOT with extract-stimulated short-term lines; assay type: cell-based, human; details: positive donor/peptide response
Experimental: as §1, §2

[11] = system: HLA-DR; assay: HLA locus restriction, mAb inhibition of ELISPOT response; assay type: cell-based, human; details: count; ≥50% inhibition by anti-HLA-DR mAb LB3.1; 0/0/0 = locus could not be determined
Experimental: (§3) To determine the HLA locus restriction of identified epitopes, mAb inhibition assays were performed as described previously (11, 37). Preliminary determinations were made on control T cell clones of known specificity to determine optimal antibody doses leading to complete inhibition of the specific clones, and not associated with inhibition of clones known to be restricted by a different HLA allele or locus. This antibody concentration was then utilized in experiments where a dose response of antigenic peptide was tested in the presence or absence of the specific antibodies. Experimental determinations were performed utilizing ELISPOT assays specific for the particular lymphokine utilized to originally identify the particular epitope mapped.
(§4) For each antigenic region/donor combination short-term T cell lines were derived by extract stimulation of triplicate cultures of 2-3 million cells. IL-2 was added 5-8 days following stimulation. After 14 days of stimulation with the corresponding allergen extract (2-50 μg/ml), the HLA locus that restricted the response to the specific lymphokine was determined by measuring the capacity of mAbs specific for HLA-DR, DP or DQ to inhibit (block) the response. For this, PBMCs were incubated with 10 μg/ml of mAbs (Strategic Biosolutions, Windham, Me.) against HLA-DR (LB3.1), DP (B7/21) or DQ (SVPL3) 30 minutes prior to addition of 10 μg/ml of peptide. Cytokine production induced by positive peptides was then measured in ELISPOT assays as described above. The pan MHC class I Ab (W6/32) was used as a control. The decrease (inhibition) in cytokine production in the presence of an HLA locus specific mAb, relative to production in the absence of mAb, was determined.

[12] = system: HLA-DP; assay: as above; assay type: cell-based, human; details: count; ≥50% inhibition by anti-HLA-DP mAb B7/21; 0/0/0 = locus could not be determined
Experimental: as §3, §4

[13] = system: HLA-DQ; assay: as above; assay type: cell-based, human; details: count; ≥50% inhibition by anti-HLA-DQ mAb SVPL3; 0/0/0 = locus could not be determined
Experimental: as §3, §4

DRB3*0202, sequence (P01903 26-254 limits assumed): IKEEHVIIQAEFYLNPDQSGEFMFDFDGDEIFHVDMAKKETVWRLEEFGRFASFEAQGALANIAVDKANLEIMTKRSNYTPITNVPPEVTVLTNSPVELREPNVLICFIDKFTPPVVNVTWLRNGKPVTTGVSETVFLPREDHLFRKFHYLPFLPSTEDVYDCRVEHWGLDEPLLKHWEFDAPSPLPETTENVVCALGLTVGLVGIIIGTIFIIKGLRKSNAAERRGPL
DRB3*0202, sequence (P79483 30-266 R40L/Y55F/D57E/Y59H/F66Y/L67A/T80R/V86D/S89Y/R103Q/A212P/R218S limits assumed): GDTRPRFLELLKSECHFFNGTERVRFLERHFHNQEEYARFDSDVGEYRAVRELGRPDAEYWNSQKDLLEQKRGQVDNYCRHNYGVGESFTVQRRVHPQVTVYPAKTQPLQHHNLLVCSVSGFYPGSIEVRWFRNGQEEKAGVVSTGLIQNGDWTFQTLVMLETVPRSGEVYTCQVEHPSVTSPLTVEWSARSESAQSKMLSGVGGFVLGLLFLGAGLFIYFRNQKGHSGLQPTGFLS

Compound: CC[C@H](C)[C@H](NC(=O)[C@H](Cc1ccc(O)cc1)NC(=O)[C@H](C)NC(=O)[C@H](CC(=O)O)NC(=O)[C@H](C)NC(=O)[C@@H](NC(=O)CNC(=O)[C@@H](N)CCC(N)=O)C(C)C)C(=O)N[C@H](C(=O)N[C@@H](CC(C)C)C(=O)N[C@H](C(=O)N[C@H](C(=O)N[C@@H](CC(C)C)C(=O)N1CCC[C@H]1C(=O)N[C@@H](CCCCN)C(=O)O)[C@@H](C)O)C(C)C)[C@@H](C)O [3324.0011]
IC50 [1]: 2010 nM

Compound: CC[C@H](C)[C@H](NC(=O)[C@H](Cc1ccccc1)NC(=O)[C@H](CC(=O)O)NC(=O)[C@@H](NC(=O)[C@@H](NC(=O)CNC(=O)[C@@H](N)CCC(=O)O)[C@@H](C)O)C(C)C)C(=O)N[C@@H](Cc1ccccc1)C(=O)NCC(=O)N[C@@H](CCC(=O)O)C(=O)N[C@@H](C)C(=O)N[C@@H](CCCNC(=N)N)C(=O)N[C@@H](CO)C(=O)N[C@@H](CC(C)C)C(=O)N[C@@H](Cc1ccc(O)cc1)C(=O)O [3324.1590]
Response (SFC/10^6) Total ([8]; each table line is one donor): 1697 SFC/10^6 and 363 SFC/10^6 | Response (SFC/10^6) IL-5 ([9]; each table line is one donor): 1300 SFC/10^6 and 363 SFC/10^6 | Response (SFC/10^6) IFNg ([10]; each table line is one donor): 397 SFC/10^6

Compound: CC[C@H](C)[C@H](N)C(=O)N[C@@H](C)C(=O)N[C@@H](Cc1ccccc1)C(=O)N[C@@H](Cc1ccccc1)C(=O)N[C@@H](CCCNC(=N)N)C(=O)N[C@@H](CCCCN)C(=O)N[C@@H](CCC(=O)O)C(=O)N1CCC[C@H]1C(=O)N[C@@H](CC(C)C)C(=O)N[C@@H](CCCCN)C(=O)N[C@@H](CCC(=O)O)C(=O)N[C@@H](CS)C(=O)NCC(=O)NCC(=O)N[C@H](C(=O)O)[C@@H](C)CC [3337.0029]
Response (SFC/10^6) Total ([8]; one donor per table line): 257 SFC/10^6 | Response (SFC/10^6) IL-5 ([9]; one donor per table line): 180 SFC/10^6 | Response (SFC/10^6) IFNg ([10]; one donor per table line): 77 SFC/10^6

Compound: CSCC[C@H](N)C(=O)N[C@@H](CCCNC(=N)N)C(=O)N[C@@H](CC(N)=O)C(=O)N[C@H](C(=O)N[C@@H](Cc1ccccc1)C(=O)N[C@@H](CC(=O)O)C(=O)N[C@@H](CC(=O)O)C(=O)N[C@H](C(=O)N[C@H](C(=O)N1CCC[C@H]1C(=O)N[C@@H](C)C(=O)N[C@@H](CC(=O)O)C(=O)N[C@@H](Cc1ccccc1)C(=O)N[C@@H](CCCCN)C(=O)N[C@H](C(=O)O)C(C)C)C(C)C)C(C)C)C(C)C [3337.0030]
Response (SFC/10^6) Total ([8]; each table line is one donor): 213 SFC/10^6 and 133 SFC/10^6 and 907 SFC/10^6 | Response (SFC/10^6) IL-5 ([9]; each table line is one donor): 110 SFC/10^6 and 133 SFC/10^6 and 447 SFC/10^6 | Response (SFC/10^6) IFNg ([10]; each table line is one donor): 103 SFC/10^6 and 460 SFC/10^6

Compound: CSCC[C@H](NC(=O)[C@@H]1CCCN1C(=O)CNC(=O)[C@@H](NC(=O)[C@H](CC(C)C)NC(=O)[C@@H]1CCCN1C(=O)[C@H](CCCCN)NC(=O)[C@H](C)NC(=O)[C@H](CO)NC(=O)[C@H](CCCCN)NC(=O)[C@@H](NC(=O)[C@H](CCC(=O)O)NC(=O)[C@H](Cc1c[nH]c2ccccc12)NC(=O)[C@@H](N)CC(C)C)C(C)C)[C@@H](C)O)C(=O)N[C@@H](CC(N)=O)C(=O)O [3337.0031]
Response (SFC/10^6) Total ([8]; each table line is one donor): 90 SFC/10^6 and 1713 SFC/10^6 | Response (SFC/10^6) IL-5 ([9]; each table line is one donor): 1010 SFC/10^6 | Response (SFC/10^6) IFNg ([10]; each table line is one donor): 90 SFC/10^6 and 703 SFC/10^6

Compound: Bet v 1 (111-125): epitope region of allergen Bet v 1, Birch
Region restriction(s) DR [11]: 2 | Region restriction(s) DP [12]: 0 | Region restriction(s) DQ [13]: 0 | Donors responding ([8]; number of allergic donors recognizing the epitope region): 3 | % responding ([8]; percent of tested allergic donors responding): 30.0% | Total SFC ([8]; total response to the epitope region): 1132 SFC

Other lines, results leading:

IC50 [2]: 5270 nM | IC50 [3]: 6000 nM | IC50 [4]: 18000 nM | IC50 [1]: 1610 nM
Compound: CC[C@H](C)[C@H](NC(=O)[C@H](CC(=O)O)NC(=O)[C@H](CC(=O)O)NC(=O)[C@H](CO)NC(=O)[C@@H](NC(=O)[C@@H](N)CCCCN)C(C)C)C(=O)N[C@H](C(=O)N[C@@H](Cc1ccc(O)cc1)C(=O)N[C@H](C(=O)N[C@@H](C)C(=O)N[C@H](C(=O)N[C@@H](C)C(=O)N[C@H](C(=O)N[C@@H](CC(C)C)C(=O)N1CCC[C@H]1C(=O)O)[C@@H](C)O)[C@@H](C)O)C(C)C)[C@@H](C)O [3324.0013]

IC50 [1]: 2990 nM
Compound: CC[C@H](C)[C@H](N)C(=O)N[C@H](C(=O)N[C@@H](Cc1ccc(O)cc1)C(=O)N[C@H](C(=O)N[C@@H](C)C(=O)N[C@H](C(=O)N[C@@H](C)C(=O)N[C@H](C(=O)N[C@@H](CC(C)C)C(=O)N1CCC[C@H]1C(=O)N[C@@H](CC(N)=O)C(=O)N[C@@H](Cc1ccc(O)cc1)C(=O)N[C@@H](CS)C(=O)N[C@@H](CCCNC(=N)N)C(=O)N[C@@H](C)C(=O)O)[C@@H](C)O)[C@@H](C)O)C(C)C)[C@@H](C)O [3324.0014]

IC50 [5]: 301 nM | IC50 [1]: 28000 nM
Compound: CC[C@H](C)[C@H](N)C(=O)N[C@@H](C)C(=O)N[C@@H](CO)C(=O)N[C@@H](CC(C)C)C(=O)N[C@@H](Cc1ccccc1)C(=O)N[C@@H](C)C(=O)N[C@@H](C)C(=O)N[C@@H](C)C(=O)NCC(=O)N[C@@H](CC(C)C)C(=O)N[C@@H](C)C(=O)N[C@@H](C)C(=O)N[C@@H](C)C(=O)N[C@@H](C)C(=O)N1CCC[C@H]1C(=O)O [3324.0015]

IC50 [6]: 40 nM | IC50 [1]: 2500 nM | IC50 [7]: 7.1 nM
Compound: CC[C@H](C)[C@H](NC(=O)[C@H](Cc1ccc(O)cc1)NC(=O)[C@H](C)NC(=O)[C@H](CC(=O)O)NC(=O)[C@H](C)NC(=O)[C@@H](N)C(C)C)C(=O)N[C@H](C(=O)N[C@@H](CC(C)C)C(=O)N[C@H](C(=O)N[C@H](C(=O)N[C@@H](CC(C)C)C(=O)N1CCC[C@H]1C(=O)N[C@@H](CCCCN)C(=O)N[C@@H](CO)C(=O)N[C@@H](CO)C(=O)O)[C@@H](C)O)C(C)C)[C@@H](C)O [3324.0016]

IC50 [5]: 28 nM
Compound: CC(C)C[C@H](NC(=O)CNC(=O)[C@H](C)NC(=O)[C@H](C)NC(=O)[C@H](C)N)C(=O)N[C@@H](C)C(=O)N[C@@H](C)C(=O)N[C@@H](C)C(=O)N[C@@H](C)C(=O)N1CCC[C@H]1C(=O)N[C@@H](CC(C)C)C(=O)N[C@@H](CCC(=O)O)C(=O)N[C@@H](CO)C(=O)N[C@@H](CCCNC(=N)N)C(=O)N[C@@H](CCC(N)=O)C(=O)O [3324.0017]

Source: patent US10918713B2, “Epitopes from allergen proteins and methods and uses for immune response modulation” (LA JOLLA INSTITUTE FOR ALLERGY AND IMMUNOLOGY, priority 2012, dated 2021)
